Data as given in US12357624B2, “Low dose pridopidine for Parkinson's Disease and other diseases associated with parkinsonism” (PRILENIA NEUROTHERAPEUTICS LTD., priority 2019, dated 2025).
Read-outs that look alike come from different tables or passages of the source.

Experiments:
[1] = biological target: Sigma-1 receptor (S1R) vs dopamine D2/D3Rs (Rattus norvegicus, UniProt Q9R0C9); conditions: rats; behaviorally relevant doses; cited from earlier work
[2] = test system: GDNF, BDNF, phosphorylated ERK1/2; conditions: 0.3 mg/kg, 35 days
Description: Animals prepared for Western blot analysis were euthanized by cervical dislocation; their brains were rapidly extracted and frozen on crushed dry ice. Tissue samples were dissected out in a cryostat chamber (−14° C.). […] The striatum was dissected out using a scalpel blade. Tissue samples from the substantia nigra were taken with a tissue puncher of 2 mm diameter spanning across rostrocaudal levels −2.70 to −3.80 relative to the bregma. The samples were kept frozen until further analysis.
Tissue homogenates were prepared in cell lysis buffer (20 mmol/LTris (pH 7.5), 150 mmol/L NaCl, 1 mmol/L EDTA, 1 mmol/L EGTA, 1% Triton X-100, 2.5 mmol/L sodium pyrophosphate, 1 mmol/L |3-glycerolphosphate, 1 mmol/L Na3VO4, […] leupeptin, and 1 mmol/L phenylmethylsulfonyl fluoride). Twenty micrograms of protein was separated on a 10% SDS polyacrylamide gel. […] Thereafter, membranes were incubated overnight at 4° C. using one of the following primary antibodies: rabbit polyclonal anti-GDNF (Santa Cruz Biotechnology, Inc., Santa Cruz, CA; 1:1000) and monoclonal anti-BDNF (Santa Cruz Biotechnology, Inc., 1:1000); rabbit polyclonal antibodies against Thr202/Tyr204-phosphorylated ERK1/2 (p44/42-MAPK; Cell Signaling Technology Inc., Danvers, MA, 1:2000). Following appropriate washing steps, membranes were incubated with HRP-linked secondary antibodies (Sigma-Aldrich, Deisenhofen, Germany; 1:15000). Signals were visualized using a chemiluminescence kit (Merck Millipore, Watford, Hertfordshire, UK), and images were acquired using a CCD camera (LAS1000 system, Fuji Films, Tokyo, Japan). Optical density was measured on specific immunoreactive bands using NIH Image J software. Membranes were then stripped and reprobed with |-actin antibodies (Sigma-Aldrich, 1:50,000). The optical density of specific bands was then normalized to the |-actin band in the same lane.

[3] = test system: B104 neuroblastoma cell line; conditions: 100 nM and 1 μM; vs control untreated cells; cited from earlier work
[4] = test system: 6-OHDA-lesioned S1R KO mice; conditions: 0.3 mg/kg, 5 weeks, vs saline
Source text: The first injection was given immediately upon completion of lesion surgery. […] Full rotations (continuous turns of 360) were counted off-line by an experimentally blinded investigator. Data are expressed as the total number of net full turns ipsilateral to the lesion per test session.
The number of supporting wall contacts performed independently by the paw contralateral to the lesion was expressed as a percentage of all supporting wall contacts in each session. […]

[5] = test system: CD68-immunopositive microglial cells; conditions: 1 mg/kg
Description: Immunohistochemistry and quantitative analyses were performed according to established protocols [Francardo V, Bez F, Wieloch T, Nissbrandt H, Ruscher K, Cenci 33. MA. Neurobiology of Disease. […] Experimental Eye Research. […] (rabbit anti-TH antiserum from Pel-Freez, Rogers, AR, 1:1000) and Cluster of Differentiation 68 (CD68) (rat anti-CD68 antiserum from AbD Serotec, Kidlington, Oxfordshire, UK; 1:1000). Quantitative analyses were performed by an experimentally blinded investigator using the following methods.
The European Journal of Neuroscience. […] Seminars in Immunopathology.

eIF2α-phosphorylation = conditions: tested 0.03 to 150 μM
Source text: The ratio of eIF2a-P to total eIF2a was quantified by immunoblot.

SOD1G93A motor neurons = conditions: 0.1 and 1 μM; cited from earlier work
6-OHDA-lesioned mice = test system: 6-OHDA-lesioned mice
Description: The study was performed in male C57B16J mice weighing approx. 25 g and having an age of 8 to 9 weeks at the beginning of the experiments. A total of 65 wild-type mice and 52 S1R knockout (KO) mice were used. S1R knockout mice and wild-type littermates (both genders) were bred on a C57BL6J background. Our S1R KO line is derived from the well-characterized Sigmar1^Gt(OST422756)Lex mouse strain distributed by the Mutant Mouse Resource Regional Centre (MMRRC) The mice were housed under a 12-h light/dark cycle with free access to food and water.
Lesions were performed according to previously described procedures [Francardo V, Bez F, Wieloch T, Nissbrandt H, Ruscher K, Cenci 33. MA. […] Brain: A Journal of Neurology. […] 6-OHDA-HCl (Sigma-Aldrich AB, Stockholm, Sweden) was freshly dissolved in 0.02% ascorbate-saline at the concentration of 3.2 mg free base per milliliter. […] The solution was injected via a glass capillary (tip diameter−50 (1 m) at the rate of 0.5 (1 L/min, and the capillary was left in place for 2 mi after each injection.
The first injection was given immediately upon completion of lesion surgery. […] An impaired capacity to perform adjusting steps during experimenter-imposed movements (stepping test) reflects both akinetic and postural deficits relevant to PD [Blume S R, Cass D K, Tseng K Y. Stepping test in mice: a reliable approach in determining forelimb akinesia in MPTP-induced Parkinson's Disease. Experimental Neurology. […] Experimental Neurology. […] The mouse was placed at the entrance of a custom-made plastic corridor (7 cm wide, 1 m long, flanked by 10-cm-high walls), gently lifted by the tail, and pulled backwards with a fixed speed (1 m/4 s). Each trial was video-recorded, and the footage was used to count the number of adjusting steps performed by each forelimb. Trials in which mice turned their body by 90° towards the walls of the corridor (in an attempt to escape or explore) were discarded. In each session, mice were tested until 3 valid trials per animal were obtained. Results were expressed as the percentage of steps performed by the forelimb contralateral to the lesion (left) over the total number of steps (mean of 3 trials per session).

wild-type motor neurons = conditions: 0.1 μM, locally applied; cited from earlier work

Sigma-1 receptor (S1R) vs dopamine D2/D3Rs, sequence (Q9R0C9 whole entry): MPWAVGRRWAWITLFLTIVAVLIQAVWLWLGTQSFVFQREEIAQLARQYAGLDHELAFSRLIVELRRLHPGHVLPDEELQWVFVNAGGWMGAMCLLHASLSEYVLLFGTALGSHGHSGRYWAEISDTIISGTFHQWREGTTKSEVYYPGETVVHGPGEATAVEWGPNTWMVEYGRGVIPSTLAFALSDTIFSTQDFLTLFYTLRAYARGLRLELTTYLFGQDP

Compound: CCCN1CCC(c2cccc(S(C)(=O)=O)c2)CC1 [pridopidine, 4-[3-(methylsulfonyl)phenyl]-1-propyl-piperidine]
- receptor occupancy, in vivo PET [1]: occupy the Sigma-1 receptor (S1R) rather than the dopamine D2/D3Rs
- striatal BDNF level vs saline ([2]; striatum): +80.8%
- striatal GDNF level vs saline ([2]; striatum): +37.6%
- striatal phosphorylated ERK1/2 vs saline ([2]; striatum): +71%
- BDNF level in the SN vs saline ([2]; substantia nigra): +88.5%
- GDNF level in the SN vs saline ([2]; substantia nigra): only BDNF levels showed a significant increase
- nigral phosphorylated ERK1/2 vs saline ([2]; substantia nigra): reached significance only in the striatum
- BDNF secretion [3]: enhanced BDNF secretion
- spontaneous rotations and forelimb use asymmetry (cylinder test, stepping test) [4]: does not improve motor deficits
- number of CD68-immunopositive microglial cells ([5]; SNc): trend towards an effect in the SNc
- number of CD68-immunopositive microglial cells ([5]; ventrolateral striatum): not in the ventrolateral striatum
- effective concentrations for reduction of eIF2α-P (eIF2α-phosphorylation): 0.03 to 3 µM
- BDNF axonal transport velocity (SOD1G93A motor neurons): significantly accelerates the velocity
- stepping test performance (6-OHDA-lesioned mice; 0.3 mg/kg s.c. daily): gradual improvement, diverging significantly from the saline-treated group on weeks 4 and 5
- stepping test, improvement above the vehicle (saline) (6-OHDA-lesioned mice; 0.3 mg/kg s.c. daily, week 5): ~94%
- stepping test performance (6-OHDA-lesioned mice; 1.0 mg/kg s.c. daily, last 2 weeks): difference from saline-treated mice did not reach significance
- stepping test, difference vs sham (6-OHDA-lesioned mice; 1.0 mg/kg s.c. daily, week 5): ~49%
- stepping test, difference vs sham (6-OHDA-lesioned mice; week 1, pridopidine-treated mice (0.3 or 1.0 mg/kg)): ~60%
- mitochondria transport velocity in axons (wild-type motor neurons): accelerates mitochondria transport in axons
